One assay addresses RET (Homo sapiens, UniProt P07949). Briefly: HTRF method for testing the inhibitory activity of compounds against RET. Type of assay: biochemical. Particulars: IC50 by nonlinear regression, read-out: RET kinase activity. Here is the method: (a) In Vitro Screening Experiment-HTRF Method for Testing the Inhibitory Activity of Compounds Against RET Experimental Procedure: 1. […] 2. The test compound (5 mM stock solution) was diluted 5 folds to 1 mM with 100% dimethyl sulfoxide; the compound was diluted into 10 concentrations at an equal ratio of 1:3 in a 384-well dilution plate. 3. 0.2 μL of the serially diluted compound was added to a 384-well plate using an Echo 550 pipetting system, 2 replicate wells for each concentration, and the final concentration of dimethyl sulfoxide was 0.5% (v/v). […] 6. […] The reaction solution was centrifuged at 1000 g for 30 s, and then sealed, and incubated at room temperature for 30 min. 8. […] 10. […] 11. […] IC50 was calculated with software GraphPad 6.0 by fitting inhibition values and logarithms of compound concentrations to a nonlinear regression (dose response−variable slope).

The target of another assay is VEGFR2 (Homo sapiens, UniProt P35968). The assay can be described thus: HTRF method for testing the inhibitory activity of compounds against VEGFR2. Type of assay: biochemical. Particulars: IC50 by nonlinear regression, read-out: VEGFR2 kinase activity. Here is the method:
(b) In Vitro Screening Experiment—HTRF Method for Testing the Inhibitory Activity of Compounds Against VEGFR2 Experimental Procedure: 1. […] The test compound (5 mM stock solution) was diluted 5 folds to 1 mM with 100% dimethyl sulfoxide; the compound was diluted into 10 concentrations at an equal ratio of 1:3 in a 384-well dilution plate. 3. […] 6. […] The reaction solution was centrifuged at 1000 g for 30 s, and then sealed, and incubated at room temperature for 40 min. 8. […] 10. […] 11. […] 12. IC50 was calculated with software GraphPad 6.0 by fitting inhibition values and logarithms of compound concentrations to a nonlinear regression (dose response−variable slope).
(TR-FRET usually uses a lanthanide donor and a delayed reading to cut background.)

The target in another assay is T1, Ba/F3-KIF5B-RET cell (Homo sapiens, UniProt P07949).
T1 construct: fused on or other part: P33176 (Kinesin-1 heavy chain)
Briefly: CellTiter-Glo luminescence assay for inhibitory activity against Ba/F3-KIF5B-RET cell. Type of assay: cell-based. The conditions noted are these: Ba/F3-KIF5B-RET cells, 72 h. The source says: (c) In Vitro Screening Experiment—CellTiter-Glo Luminescence Assay for Testing the Inhibitory Activity of Compounds Against Ba/F3-KIF5B-RET Cell Experimental Procedure: 1. The mammalian cell expression vector containing human KIF5B-RET cDNA was introduced into Ba/F3 cells using the Neon® transfection system method, and the surviving clones screened by puromycin were subjected to cell growth inhibitory function experiments and Western blotting to verify cell lines with stable and high expression of RET. 2. […] 3. The test compound (5 mM stock) was diluted 2.5 folds to 2 mM with 100% dimethyl sulfoxide; and the compound was diluted into 10 concentrations at an equal ratio of 1:3 in a 384-well dilution plate. 4. […] 6. […] 7. By fitting the data with XLFit 5.0 based on the parameters formula, the IC50 value was calculated as: Y=Bottom+(Top−Bottom)/(1+10^((Log IC50−X)*HillSlope)).
Background: ATP-based viability assays read luminescence as a measure of living cells.

T1 sequence (P07949 whole entry, change not shown, the tested form may be a part): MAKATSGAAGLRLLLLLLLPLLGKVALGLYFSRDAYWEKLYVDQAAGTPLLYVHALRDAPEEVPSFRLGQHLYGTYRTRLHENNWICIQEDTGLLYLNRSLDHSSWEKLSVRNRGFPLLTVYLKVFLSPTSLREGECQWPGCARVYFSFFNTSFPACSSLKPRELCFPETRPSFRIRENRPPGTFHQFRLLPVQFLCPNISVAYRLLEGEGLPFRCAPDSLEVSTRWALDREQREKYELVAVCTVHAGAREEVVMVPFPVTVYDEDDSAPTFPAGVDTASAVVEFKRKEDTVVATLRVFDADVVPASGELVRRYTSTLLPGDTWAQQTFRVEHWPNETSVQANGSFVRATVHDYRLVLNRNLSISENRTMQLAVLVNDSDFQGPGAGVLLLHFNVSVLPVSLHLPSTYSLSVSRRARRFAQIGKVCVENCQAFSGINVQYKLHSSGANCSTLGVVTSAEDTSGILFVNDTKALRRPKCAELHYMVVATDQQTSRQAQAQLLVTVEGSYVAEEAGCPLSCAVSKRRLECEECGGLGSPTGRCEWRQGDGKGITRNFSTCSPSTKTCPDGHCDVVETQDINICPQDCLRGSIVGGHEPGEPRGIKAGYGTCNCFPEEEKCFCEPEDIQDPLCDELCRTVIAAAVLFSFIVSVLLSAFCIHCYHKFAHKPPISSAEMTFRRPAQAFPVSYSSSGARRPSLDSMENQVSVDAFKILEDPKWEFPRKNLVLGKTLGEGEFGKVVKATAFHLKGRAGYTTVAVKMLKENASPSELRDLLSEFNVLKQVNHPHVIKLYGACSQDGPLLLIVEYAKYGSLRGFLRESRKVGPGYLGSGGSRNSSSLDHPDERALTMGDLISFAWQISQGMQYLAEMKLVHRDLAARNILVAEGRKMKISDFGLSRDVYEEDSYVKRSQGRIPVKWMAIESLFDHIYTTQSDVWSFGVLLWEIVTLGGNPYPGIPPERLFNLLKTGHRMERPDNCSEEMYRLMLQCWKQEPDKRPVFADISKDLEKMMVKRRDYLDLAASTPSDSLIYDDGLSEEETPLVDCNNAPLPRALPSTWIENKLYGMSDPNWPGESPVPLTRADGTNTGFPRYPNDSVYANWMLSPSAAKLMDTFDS
Sequence of VEGFR2 (P35968 20-1356, species assumed): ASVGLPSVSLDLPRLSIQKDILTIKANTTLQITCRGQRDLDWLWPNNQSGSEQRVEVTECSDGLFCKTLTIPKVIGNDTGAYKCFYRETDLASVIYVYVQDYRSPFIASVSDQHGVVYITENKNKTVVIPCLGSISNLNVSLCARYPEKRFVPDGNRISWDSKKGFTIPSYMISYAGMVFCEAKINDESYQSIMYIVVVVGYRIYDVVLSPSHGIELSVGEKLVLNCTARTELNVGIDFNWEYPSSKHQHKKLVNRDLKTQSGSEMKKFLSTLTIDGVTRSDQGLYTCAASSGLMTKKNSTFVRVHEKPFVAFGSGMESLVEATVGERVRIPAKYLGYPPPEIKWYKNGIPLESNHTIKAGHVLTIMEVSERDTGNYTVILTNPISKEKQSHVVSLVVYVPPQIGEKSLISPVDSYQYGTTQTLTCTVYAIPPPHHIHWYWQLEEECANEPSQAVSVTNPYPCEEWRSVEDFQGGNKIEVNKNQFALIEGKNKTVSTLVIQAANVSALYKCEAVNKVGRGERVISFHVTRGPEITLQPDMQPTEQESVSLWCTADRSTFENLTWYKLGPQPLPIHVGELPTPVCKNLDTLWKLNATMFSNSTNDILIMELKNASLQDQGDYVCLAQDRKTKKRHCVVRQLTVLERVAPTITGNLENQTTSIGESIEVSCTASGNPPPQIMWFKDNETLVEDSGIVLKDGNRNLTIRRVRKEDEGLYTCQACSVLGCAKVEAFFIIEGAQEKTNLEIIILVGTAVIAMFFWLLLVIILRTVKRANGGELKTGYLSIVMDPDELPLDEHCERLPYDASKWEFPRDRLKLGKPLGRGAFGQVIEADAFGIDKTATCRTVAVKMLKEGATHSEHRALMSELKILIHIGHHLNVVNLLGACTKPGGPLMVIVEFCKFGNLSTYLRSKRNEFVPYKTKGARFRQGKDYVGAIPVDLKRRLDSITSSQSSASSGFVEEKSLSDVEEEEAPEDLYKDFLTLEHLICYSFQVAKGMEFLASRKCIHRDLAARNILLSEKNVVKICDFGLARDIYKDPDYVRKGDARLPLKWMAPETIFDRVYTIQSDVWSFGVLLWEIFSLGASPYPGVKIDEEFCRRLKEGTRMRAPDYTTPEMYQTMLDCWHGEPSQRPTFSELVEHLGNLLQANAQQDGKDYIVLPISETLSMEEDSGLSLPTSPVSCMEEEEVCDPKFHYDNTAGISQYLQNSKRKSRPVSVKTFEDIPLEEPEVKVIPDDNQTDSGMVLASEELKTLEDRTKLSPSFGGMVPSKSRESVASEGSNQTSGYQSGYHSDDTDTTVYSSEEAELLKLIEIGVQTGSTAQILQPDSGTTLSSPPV
Sequence of RET (P07949 29-1114): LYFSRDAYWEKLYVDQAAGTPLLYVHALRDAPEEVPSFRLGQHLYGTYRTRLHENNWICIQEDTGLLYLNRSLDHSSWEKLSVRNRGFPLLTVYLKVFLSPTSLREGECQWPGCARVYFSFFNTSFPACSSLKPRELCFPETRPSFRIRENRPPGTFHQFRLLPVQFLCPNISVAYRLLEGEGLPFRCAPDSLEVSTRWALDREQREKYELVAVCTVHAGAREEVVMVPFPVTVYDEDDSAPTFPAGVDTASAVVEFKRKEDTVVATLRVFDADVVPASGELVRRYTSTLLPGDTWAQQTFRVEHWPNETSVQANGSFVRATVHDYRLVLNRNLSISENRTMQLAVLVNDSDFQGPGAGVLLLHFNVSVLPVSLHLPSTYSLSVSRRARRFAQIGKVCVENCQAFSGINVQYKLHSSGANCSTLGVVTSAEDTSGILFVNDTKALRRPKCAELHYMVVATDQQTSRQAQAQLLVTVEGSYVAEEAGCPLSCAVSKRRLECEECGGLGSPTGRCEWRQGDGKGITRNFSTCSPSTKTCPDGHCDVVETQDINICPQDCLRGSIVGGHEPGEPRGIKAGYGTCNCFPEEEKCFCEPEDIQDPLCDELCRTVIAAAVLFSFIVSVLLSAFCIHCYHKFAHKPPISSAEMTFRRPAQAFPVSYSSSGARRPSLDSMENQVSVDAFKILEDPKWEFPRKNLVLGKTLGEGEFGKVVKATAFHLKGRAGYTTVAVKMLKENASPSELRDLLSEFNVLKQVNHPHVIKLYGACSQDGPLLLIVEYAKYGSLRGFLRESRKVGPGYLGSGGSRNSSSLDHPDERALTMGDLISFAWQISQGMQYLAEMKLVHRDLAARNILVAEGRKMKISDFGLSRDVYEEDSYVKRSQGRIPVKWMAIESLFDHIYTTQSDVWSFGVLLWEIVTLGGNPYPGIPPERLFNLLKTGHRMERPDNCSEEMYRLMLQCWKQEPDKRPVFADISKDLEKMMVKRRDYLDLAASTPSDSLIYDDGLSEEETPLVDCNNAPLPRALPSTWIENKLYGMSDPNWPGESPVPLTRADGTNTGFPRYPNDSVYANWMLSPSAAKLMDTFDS

As usually defined, the GI50 is the concentration that inhibits growth by half. A high value points to lower sensitivity of the cells. With `C[C@@H](c1ccc(-n2cc(F)cn2)nc1)N(C)c1ccc(-c2cc(OCC(F)(F)F)cn3ncc(C#N)c23)cn1` [Compound 35, (S)-4-(6-((1-(6-(4-fluoro-1H-pyrazol-1-yl)pyridin-3-yl)ethyl)(methyl)amino)pyridine-3-yl)-6-(2,2,2-trifluoroethoxy)pyrazolo[1,5-a]pyridine-3-carbonitrile], the IC50 was determined as 6.94 nM on RET and 819 nM at VEGFR2. The same compound displayed a GI50 on Ba/F3-KIF5B-RET cell of 396 nM.
The matching figures for `CC(O)COc1cc(-c2ccc(N(C)[C@@H](C)c3ccc(-n4cc(F)cn4)nc3)nc2)c2c(C#N)cnn2c1` (stereo partly drawn) [Compound 36, (S)-4-(6-((1-(6-(4-fluoro-1H-pyrazol-1-yl)pyridin-3-yl)ethyl)(methyl)amino)pyridine-3-yl)-6-(2-hydroxypropoxy)pyrazolo[1,5-a]pyridine-3-carbonitrile]: 2.76 nM, 47 nM and 19.9 nM.
The matching figures for `CCn1cc(-c2cc(-c3ccc(N(C)[C@@H](C)c4ccc(-n5cc(F)cn5)nc4)nc3)c3c(C#N)cnn3c2)cn1` [Compound 38, (S)-6-(1-ethyl-1H-pyrazol-4-yl)-4-(6-((1-(6-(4-fluoro-1H-pyrazol-1-yl)pyridine-3-yl)ethyl)(methyl)amino)pyridin-3-yl)pyrazolo[1,5-a]pyridine-3-carbonitrile]: 0.56 nM, 7.39 nM and 5.14 nM.
The matching figures for `CCCOc1cc(-c2ccc(N(C)[C@@H](C)c3ccc(-n4cc(F)cn4)nc3)nc2)c2c(C#N)cnn2c1` [Compound 39, (S)-4-(6-((1-(6-(4-fluoro-1H-pyrazol-1-yl)pyridin-3-yl)ethyl)(methyl)amino)pyridine-3-yl)-6-propoxypyrazolo[1,5-a]pyridine-3-carbonitrile]: 1.93 nM, more than 5000 nM and 182 nM.
As to `COc1ccc([C@H](C)N(C)c2ccc(-c3cc(OCC(C)(C)O)cn4ncc(C#N)c34)cn2)cn1` [Compound 43, (S)-6-(2-hydroxy-2-methylpropoxy)-4-(6-((1-(6-methoxypyridin-3-yl)ethyl)(methyl)amino)pyridin-3-yl)pyrazolo[1,5-a]pyridine-3-carbonitrile], the IC50 at RET was 2.05 nM; at VEGFR2, 245 nM. Also, on Ba/F3-KIF5B-RET cell, the GI50 amounted to 35 nM.
In the same order, the values of `CC[C@@H](c1ccc(-n2cc(F)cn2)nc1)N(C)c1ccc(-c2cc(OCC(C)(C)O)cn3ncc(C#N)c23)cn1` [Compound 44, (S)-4-(6-((1-(6-(4-fluoro-1H-pyrazolyl)pyridin-3-yl)propyl)(methyl)amino)pyridin-3-yl)-6-(2-hydroxy-2-methylpropoxy)pyrazo[1,5-a]pyridine-3-carbonitrile] are 0.26 nM, 18 nM and 18.6 nM.
The matching figures for `C[C@@H](c1ccc(-n2cc(F)cn2)nc1)N(C)c1ccc(-c2cc(OCC3(O)CC3)cn3ncc(C#N)c23)cn1` [Compound 46, (S)-4-(6-((1-(6-(4-fluoro-1H-pyrazolyl)pyridin-3-yl)ethyl)(methyl)amino)pyridin-3-yl)-6-((1-hydroxycyclopropyl)methoxy)pyrazolo[1,5-a]pyridine-3-carbonitrile]: 0.73 nM, 80.5 nM and 13.6 nM.
In the same order, the values of `C[C@@H](c1ccc(-n2cc(F)cn2)nc1)N(C)c1ccc(-c2cc(N3CCCCC3)cn3ncc(C#N)c23)cn1` [Compound 47, (S)-4-(6-((1-(6-(4-fluoro-1H-pyrazol-1-yl)pyridin-3-yl)ethyl)(methyl)amino)pyridine-3-yl)-6-(piperidin-1-yl)pyrazolo[1,5-a]pyridine-3-carbonitrile] are 5.45 nM, more than 5000 nM and 236 nM.
Take `C[C@@H](c1ccc(-n2cc(F)cn2)nc1)N(C)c1ccc(-c2cc(N3CCC(F)(F)CC3)cn3ncc(C#N)c23)cn1` [Compound 48]: the IC50 on RET is 4.32 nM; at VEGFR2, not below 5440 nM. On Ba/F3-KIF5B-RET cell, this compound returned a GI50 of 142 nM.
With `C[C@@H](c1ccc(-n2cc(F)cn2)nc1)N(C)c1ccc(-c2cc(NCC3CC3)cn3ncc(C#N)c23)cn1` [Compound 49, (S)-6-((cyclopropylmethyl)amino)-4-(6-((1-(6-(4-fluoro-1H-pyrazol-1-yl)pyridin-3-yl)ethyl)(methyl)amino)pyridin-3-yl)pyrazolo[1,5-a]pyridine-3-carbonitrile], the IC50 was 1.25 nM at RET and more than 5000 nM on VEGFR2. At Ba/F3-KIF5B-RET cell, this compound displayed a GI50 of 30.7 nM.
In the same order, the values of `CC(C)Nc1cc(-c2ccc(N(C)[C@@H](C)c3ccc(-n4cc(F)cn4)nc3)nc2)c2c(C#N)cnn2c1` [Compound 50, (S)-4-(6-((1-(6-(4-fluoro-1H-pyrazol-1-yl)pyridin-3-yl)ethyl)(methyl)amino)pyridine-3-yl)-6-(isopropylamino)pyrazolo[1,5-a]pyridine-3-carbonitrile] are 1.67 nM, 156 nM and 104 nM.
The matching figures for `CCNc1cc(-c2ccc(N(C)[C@@H](C)c3ccc(-n4cc(F)cn4)nc3)nc2)c2c(C#N)cnn2c1` [Compound 51, (S)-4-(6-((1-(6-(4-fluoro-1H-pyrazol-1-yl)pyridin-3-yl)ethyl)(methyl)amino)pyridine-3-yl)-6-(ethylamino)pyrazolo[1,5-a]pyridine-3-carbonitrile]: 0.47 nM, 4.14 nM and 5.02 nM.
The matching figures for `C#CCOc1cc(-c2ccc(N(C)[C@@H](C)c3ccc(-n4cc(F)cn4)nc3)nc2)c2c(C#N)cnn2c1` [Compound 53, (S)-4-(6-((1-(6-(4-fluoro-1H-pyrazol-1-yl)pyridin-3-yl)ethyl)(methyl)amino)pyridine-3-yl)-6-(prop-2-yn-1-yloxy)pyrazolo[1,5-a]pyridine-3-carbonitrile]: 5.52 nM, 293 nM and 432 nM.
As to `COCOc1cc(-c2ccc(N(C)[C@@H](C)c3ccc(-n4cc(F)cn4)nc3)nc2)c2c(C#N)cnn2c1` [Compound 55, (S)-4-(6-((1-(6-(4-fluoro-1H-pyrazol-1-yl)pyridin-3-yl)ethyl)(methyl)amino)pyridine-3-yl)-6-(methoxymethoxy)pyrazolo[1,5-a]pyridine-3-carbonitrile], the results for the IC50 at RET and on VEGFR2 were 3.79 nM and more than 5000 nM, respectively. Also, the 50% growth inhibitory concentration (GI50) on Ba/F3-KIF5B-RET cell is 380 nM.
Turning to `CN(Cc1ccc(-n2cc(F)cn2)nc1)c1ccc(-c2cc(OCC(C)(C)O)cn3ncc(C#N)c23)cn1` [Compound 56, 4-(6-(((6-(4-fluoro-1H-pyrazol-1-yl)pyridin-3-yl)methyl)(methyl)amino)pyridin-3-yl)-6-(2-hydroxy-2-methylpropoxy)pyrazolo[1,5-a]pyridine-3-carbonitrile], the IC50 worked out at 0.68 nM at RET and 30.2 nM at VEGFR2. Moreover, growth on Ba/F3-KIF5B-RET cell was halved (GI50) at 13.9 nM.
The matching figures for `CCN(Cc1ccc(-n2cc(F)cn2)nc1)c1ccc(-c2cc(OCC(C)(C)O)cn3ncc(C#N)c23)cn1` [Compound 57]: 1.3 nM, 59.2 nM and 40.7 nM.

Values taken from patent US12552785B2, “Pyrazolo[1,5-α]pyridine derivative, preparation method therefor, and composition and use thereof” (SHENZHEN ZHONGGE BIOLOGICAL TECHNOLOGY CO., LTD., priority 2020, dated 2026).
